# According to PMC12615753, “Glutathione as a taste modulator: molecular mechanisms of interaction with umami and sweet taste receptors” (Food Chemistry: Molecular Sciences, 2025):
# Molecular target: T1, hTAS1R1 S306A/rTAS1R3 (Homo sapiens, UniProt Q7RTX1, S306A)
# T1 construct: expressed in transfected cells; host or cells: HEK293T/17 (ATCC CRL-11268)
# T1 sequence (Q7RTX1 21-841 S306A): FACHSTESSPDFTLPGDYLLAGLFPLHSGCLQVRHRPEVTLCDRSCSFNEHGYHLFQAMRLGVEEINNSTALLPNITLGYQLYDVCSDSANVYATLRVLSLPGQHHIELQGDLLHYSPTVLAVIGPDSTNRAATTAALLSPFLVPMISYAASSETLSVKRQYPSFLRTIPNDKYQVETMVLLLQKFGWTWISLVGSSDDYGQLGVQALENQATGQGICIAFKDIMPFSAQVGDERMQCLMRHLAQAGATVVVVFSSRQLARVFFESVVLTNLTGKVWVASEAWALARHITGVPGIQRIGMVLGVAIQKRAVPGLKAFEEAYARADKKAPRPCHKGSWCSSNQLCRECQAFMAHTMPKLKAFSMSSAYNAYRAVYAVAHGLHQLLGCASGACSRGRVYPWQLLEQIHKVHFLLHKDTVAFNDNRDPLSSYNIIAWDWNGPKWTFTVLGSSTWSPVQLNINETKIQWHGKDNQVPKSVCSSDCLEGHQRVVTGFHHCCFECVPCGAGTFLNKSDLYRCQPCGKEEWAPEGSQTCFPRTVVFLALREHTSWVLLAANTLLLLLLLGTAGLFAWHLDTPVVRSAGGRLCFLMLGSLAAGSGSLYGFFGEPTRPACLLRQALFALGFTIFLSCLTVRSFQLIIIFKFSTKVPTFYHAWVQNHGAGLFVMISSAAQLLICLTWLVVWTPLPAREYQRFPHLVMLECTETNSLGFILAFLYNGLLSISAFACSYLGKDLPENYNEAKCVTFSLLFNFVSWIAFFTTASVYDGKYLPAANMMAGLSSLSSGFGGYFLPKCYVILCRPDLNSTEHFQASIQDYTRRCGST
# T1 sequence (Q923K1 21-858 partner): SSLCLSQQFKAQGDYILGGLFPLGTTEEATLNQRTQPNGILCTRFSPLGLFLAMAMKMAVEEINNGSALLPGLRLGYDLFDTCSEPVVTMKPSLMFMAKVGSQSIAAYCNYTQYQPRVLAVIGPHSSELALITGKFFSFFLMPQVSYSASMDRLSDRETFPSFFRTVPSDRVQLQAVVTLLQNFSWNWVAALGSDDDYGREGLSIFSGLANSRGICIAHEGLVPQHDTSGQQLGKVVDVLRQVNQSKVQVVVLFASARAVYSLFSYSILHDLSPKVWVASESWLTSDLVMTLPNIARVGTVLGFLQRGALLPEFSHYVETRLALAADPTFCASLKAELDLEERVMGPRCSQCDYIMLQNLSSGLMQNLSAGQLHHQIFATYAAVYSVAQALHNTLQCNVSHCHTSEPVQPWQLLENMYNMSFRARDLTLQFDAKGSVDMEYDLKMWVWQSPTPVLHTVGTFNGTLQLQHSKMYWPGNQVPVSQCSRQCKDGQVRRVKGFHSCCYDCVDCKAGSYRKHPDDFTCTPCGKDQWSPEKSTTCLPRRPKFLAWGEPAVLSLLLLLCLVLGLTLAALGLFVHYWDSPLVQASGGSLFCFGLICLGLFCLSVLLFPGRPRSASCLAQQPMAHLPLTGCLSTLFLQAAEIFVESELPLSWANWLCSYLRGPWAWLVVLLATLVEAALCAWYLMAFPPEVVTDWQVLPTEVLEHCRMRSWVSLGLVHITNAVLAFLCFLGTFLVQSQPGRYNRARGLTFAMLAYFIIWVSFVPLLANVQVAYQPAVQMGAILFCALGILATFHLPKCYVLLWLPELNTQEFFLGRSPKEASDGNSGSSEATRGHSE
# Assay: Calcium assay, hTAS1R1 mutant co-expressed with rTAS1R3
# Format: cell-based, rat
SMILES,EC50 [mM],effect of the added compound (1 mM) on the response to L-Glu (S306A),"response to the agonist alone, vs WT (S306A)"
"N[C@@H](CCC(=O)N[C@@H](CS)C(=O)NCC(=O)O)C(=O)O [GSH, γ-L-glutamyl-L-cysteinyl-glycine]",> 30,did not affect,fully abolished
"CCCC(CCC)NC(=O)c1ccc2c(c1)OCO2 [S807, N-(heptan-4-yl)benzo[d][1,3]dioxole-5-carboxamide, reference compound]",–,–,strongly affected
